Experimental data: patent US11642413B2, “Compounds for degrading Tau protein aggregates and uses thereof” (Aprinoia Therapeutics Limited, priority 2019, dated 2023)
Each block holds one compound with its values, some of them ahead of it.

How the values were obtained:
[1] = target: heparin-induced aggregated Tau (aTau) (Homo sapiens (Human), UniProt P10636); experiment: PBB5 competition assay; type: binding; settings: for Bmax: competition assay with PBB5; for IC50: 0.12 μM aTau, 0.1 μM PBB5, 37° C., 1 hour
Chain of heparin-induced aggregated Tau (aTau) (P10636 other isoform, or with tags, fused parts or gaps): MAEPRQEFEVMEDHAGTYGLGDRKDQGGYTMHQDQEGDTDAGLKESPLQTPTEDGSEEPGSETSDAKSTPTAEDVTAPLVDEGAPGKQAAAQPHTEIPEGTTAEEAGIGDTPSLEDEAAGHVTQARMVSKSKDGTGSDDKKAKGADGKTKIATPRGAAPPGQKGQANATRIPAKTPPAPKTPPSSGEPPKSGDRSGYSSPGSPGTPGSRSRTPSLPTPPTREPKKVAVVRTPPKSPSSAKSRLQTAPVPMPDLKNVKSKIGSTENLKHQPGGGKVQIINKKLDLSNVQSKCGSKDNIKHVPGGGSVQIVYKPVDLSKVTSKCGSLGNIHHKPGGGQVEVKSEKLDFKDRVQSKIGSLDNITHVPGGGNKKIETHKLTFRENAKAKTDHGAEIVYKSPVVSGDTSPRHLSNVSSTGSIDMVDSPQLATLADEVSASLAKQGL
Method: 1 mM IPTG (Sangon Biotech, Cat. No A100487) was used to induce production of tau by bacteria (BL21, Invitrogen, Cat. No C600003) transformed with a full-length 2N4R tau expression plasmid. After 3 hours, cell pellet was resuspended in lysis buffer (100 mM PIPES, 1 mM EGTA, 1 mM MgSO4, pH 6.8) and lysed by sonication followed by centrifugation (15,000 rpm, 15 min, 4° C.). The supernatant was then placed in a boiling water bath for 20 min, followed by centrifugation (15,000 rpm, 15 min, 4° C.). Supernatant was loaded onto a Q-Sepharose® Fast Flow column (GE healthcare, Cat. No 17-0510-01), the flow-through fraction was loaded onto an SP-Sepharose® Fast Flow column (GE healthcare, Cat. No 17-0729-01), and tau protein was eluted with elution buffer (100 mM PIPES, 1 M NaCl, 1 mM EGTA, 1 mM MgSO4, 0.2 M NaCl, pH 6.8). Collected fractions of tau-containing eluates were pooled, concentrated and dialyzed against HEPES buffer (25 mM HEPES, 0.1 mM EDTA, 0.5 mM DTT, 100 mM NaCl, pH 7.2) and stored at −80° C. in small aliquots until use. Protein concentration was determined by UV absorption.
2 μM of tau prepared in 30 mM Tris-HCl, pH 7.5 buffer was incubated in tube with 15 μM heparin (Sigma, Cat. No H3149) at 37° C. for 24 hours.
2 μM of aTau was diluted to 0.12 μM by […] (pH 6.8) and then incubated with 0.1 μM 2-(4-(2-(methylamino)pyridine-5-yl)-1,3-butadiene-1-yl)benzothiazole-6-ol (PBB5) and serially diluted compound (three-fold serial dilution, from 10 to 0.00017 μM) in a 96-well plate (Corning, Cat. No 3573) at 37° C. for 1 hour. Fluorescence intensity (excitation/emission=530/690 nm) of PBB5 was read by microplate spectrometer (EnSpire 2300, PerkinElmer). Percentage of competition was calculated using the following equation: (Max−well of compound alone)/(Max−Min)*100%, where Max=(Tau+PBB5) signals−(buffer+PBB5) signals; and Min=(buffer+PBB5) signals−(buffer+PBB5) signals.
The IC50 value of each compound was calculated with GraphPad Prism software using the “4 Parameter Logistic Model or Sigmoidal Dose-Response Model”: Y=Bottom+(Top−Bottom)/(1+(IC50/X)^HillSlope)

[2] = In vivo pharmacokinetic study of plasma and brain tissue; settings: mice, 1 mg/kg, intravenous
Method: To determine whether the compounds of the present disclosure are capable of crossing the blood brain barrier (BBB), example compound 160313 was administered to mice in a pharmacokinetic study (1 mg/kg, intravenous) of plasma and brain tissue.
Animal Husbandry: Mice were housed at animal room environment with ventilation 15 times/hour, lighting 12 hours/day, temperature 20° C. to 24° C. and humidity 40% to 70%. The study rooms were disinfected and cleaned prior to the start of the study and the operation area was cleaned after each dosing or sampling during the study conduct. All animals had free access to food and water during the study. The animals had access to Certified Rodent Diet and water ad libitum. The nutritional composition and levels of contaminants of the diet and impurities and contaminants of the water were monitored by third organization. The health status of the animals was evaluated in accordance with accepted animal husbandry procedures and deemed suitable for experimental use.
Sample Collection & Processing: Approximately 110 μL of whole blood were collected from all animals via facial or cardiac puncture under anesthesia with Isoflurane into test tubes containing potassium ethylenediaminetetraacetate (K2EDTA) at 0.25, 0.5, 1, 2, 4, 8 and 24 hr post dose. Brian samples were collected at 0.25, 0.5, 1, 2, 4, 8 and 24 hours post dose. A perfusion with pre-cold saline will be conducted via cardiac puncture before brain collection. Blood samples were centrifuged at 2000 g at 4° C. for 5 minutes to obtain plasma samples by transferring the supernatants into new tubes. All plasma and brain samples were stored at approximately −70° C. until analysis.
Bioanalytical Method Development: The concentrations of compound in plasma and brain samples were determined using a liquid chromatography with tandem mass spectrometry (LC-MS/MS) based method.

[3] = target: heparin-induced aggregated Tau (aTau), full-length 2N4R tau (Homo sapiens (Human), UniProt P10636); experiment: In vitro fluorometric aTau binding assay; settings: 0.04 μM aTau, 37° C., 1 hour, fluorescence intensity
Chain of heparin-induced aggregated Tau (aTau), full-length 2N4R tau (P10636 other isoform, or with tags, fused parts or gaps): as above
Method: 1 mM IPTG (Sangon Biotech, Cat. No A100487) was used to induce production of tau by bacteria (BL21, Invitrogen, Cat. No C600003) transformed with a full-length 2N4R tau expression plasmid. After 3 hours, cell pellet was resuspended in lysis buffer (100 mM PIPES, 1 mM EGTA, 1 mM MgSO4, pH 6.8) and lysed by sonication followed by centrifugation (15,000 rpm, 15 min, 4° C.). The supernatant was then placed in a boiling water bath for 20 min, followed by centrifugation (15,000 rpm, 15 min, 4° C.). […] Protein concentration was determined by UV absorption. […]
2 μM aTau was diluted to 0.04 μM with 30 mM Tris-HCl (pH 6.8), and then incubated with serially diluted compound (three-fold serial dilutions, from 10 to 0.00017 μM) in a 96-well plate (Corning, Cat. No 3573) at 37° C. for 1 hour. Fluorescence intensity (excitation/emission=370/500 nm) of APN-0729 was read by microplate spectrometer (EnSpire 2300, PerkinElmer). Compound Kd values were calculated using the following equation: Y=Bmax*X/(Kd+X), where X is the concentration of compound; Y is the fluorescence signal of (compound+aTau)−(compound+DMSO); and Bmax is the maximum signal.

Bmax [1]: 71%
Structure (SMILES): CN(C)c1ccc(-c2ccc(-c3nc4ccc(NCCOCCOCCOCCOCCOCCOc5ccc6c(c5)C(=O)N(C5CCC(=O)NC5=O)C6=O)cc4s3)cc2)cn1 (stereo not drawn) [Compound 159985, 2-[2,6-bis(oxo)piperidin-3-yl]-5-[2-[2-[2-[2-[2-[2-[[2-[4-[6-(dimethylamino)-pyridin-3-yl]phenyl]-1,3-benzothiazol-6-yl]amino]ethoxy]ethoxy]ethoxy]ethoxy]ethoxy]-ethoxy]isoindole-1,3-dione]

Bmax [1]: 69%
Structure (SMILES): CN(C)c1ccc(-c2ccc(-c3nc4ccc(NCCOCCOc5ccc6c(c5)C(=O)N(C5CCC(=O)NC5=O)C6=O)cc4s3)cc2)cn1 (stereo not drawn) [Compound 160219, 2-[2,6-bis(oxo)piperidin-3-yl]-5-[2-[2-[[2-[4-[6-(dimethylamino)pyridin-3-yl]phenyl]-1,3-benzothiazol-6-yl]amino]ethoxy]ethoxy]isoindole-1,3-dione]

Bmax [1]: 59%
Structure (SMILES): CN(C)c1ccc(-c2ccc(-c3nc4ccc(NCCOCCOCCOCCOCCOCCOc5ccc6c(c5)CN(C5CCC(=O)NC5=O)C6=O)cc4s3)cc2)cn1 (stereo not drawn) [Compound 160273, 3-[6-[2-[2-[2-[2-[2-[2-[[2-[4-[6-(dimethylamino)pyridin-3-yl]phenyl]-1,3-benzothiazol-6-yl]-amino]ethoxy]ethoxy]ethoxy]ethoxy]-ethoxy]ethoxy]-3-oxo-1H-isoindol-2-yl]piperidine-2,6-dione]

Bmax [1]: 96%
Structure (SMILES): CN(C)c1ccc2nc(-c3ccc(-c4ccc(NCCOCCOCCOCCOCCOCCOc5ccc6c(c5)C(=O)N(C5CCC(=O)NC5=O)C6=O)nc4)cc3)sc2c1 (stereo not drawn) [Compound 160275, 2-[2,6-bis(oxo)piperidin-3-yl]-5-[2-[2-[2-[2-[2-[2-[[5-[4-[6-(dimethylamino)-1,3-benzothiazol-2-yl]phenyl]pyridin-2-yl]amino]ethoxy]ethoxy]-ethoxy]ethoxy]ethoxy]ethoxy]isoindole-1,3-dione]

Bmax [1]: 64% | Kp ([2]; mouse, brain/plasma, read-out: brain/plasma ratio): ~0.31 | AUC(0-t) ([2]; mouse, Brain): 117 ng·h/mL | Cmax ([2]; mouse, Brain): 111 ng/mL | Tmax ([2]; mouse, Brain): 15 min | half-life ([2]; mouse, Brain): 61.8 min | AUC(0-t) ([2]; mouse, Plasma): 379 ng·h/mL | half-life ([2]; mouse, Plasma): 27.6 min
Structure (SMILES): CN(C)c1ccc(-c2ccc(-c3nc4ccc(NCCOCCOc5ccc6c(c5)CN(C5CCC(=O)NC5=O)C6=O)cc4s3)cc2)cn1 (stereo not drawn) [Compound 160313, 3-[6-[2-[2-[[2-[4-[6-(dimethylamino)pyridin-3-yl]phenyl]-1,3-benzothiazol-6-yl]amino]ethoxy]ethoxy]-3-oxo-1H-isoindol-2-yl]piperidine-2,6-dione]
BBB penetration [2]: able to penetrate BBB in short period of time

Bmax [1]: 80%
Structure (SMILES): CN(C)c1ccc2nc(-c3ccc(-c4ccc(NCCOCCOCCOCCOCCOCCOc5ccc6c(c5)CN(C5CCC(=O)NC5=O)C6=O)nc4)cc3)sc2c1 (stereo not drawn) [Compound 160383, 3-[6-[2-[2-[2-[2-[2-[2-[[5-[4-[6-(dimethylamino)-1,3-benzothiazol-2-yl]-phenyl]pyridin-2-yl]amino]ethoxy]ethoxy]ethoxy]ethoxy]-ethoxy]ethoxy]-3-oxo-1H-isoindol-2-yl]piperidine-2,6-dione]

Kd [3]: 360 nM | IC50 [1]: 2260 nM | Bmax [1]: =100%
Structure (SMILES): CN(C)c1ccc(-c2ccc(-c3cn4cc(OCCOCCN5C(=O)CCC(N6C(=O)c7ccc(O)cc7C6=O)C5=O)ccc4n3)cc2)c(F)n1 (stereo not drawn) [Compound 160570]

Kd [3]: 100 nM | IC50 [1]: 1000 nM | Bmax [1]: =100%
Structure (SMILES): CN(C)c1ccc2nc(-c3ccc(-c4ccc(NCCOCCN5C(=O)CCC(N6C(=O)c7ccc(O)cc7C6=O)C5=O)nc4)cc3)sc2c1 (stereo not drawn) [Compound 160703]

Bmax [1]: 113%
Structure (SMILES): CN(C)c1ccc(-c2ccc(-c3cn4cc(OCCOCCOCCOCCOCCOCCOc5ccc6c(c5)C(=O)N(C5CCC(=O)NC5=O)C6=O)ccc4n3)cc2)c(F)n1 (stereo not drawn) [Compound 160744, 2-[2,6-bis(oxo)piperidin-3-yl]-5-[2-[2-[2-[2-[2-[2-[2-[4-[6-(dimethyl-amino)-2-fluoro-pyridin-3-yl]phenyl]imidazo[1,2-a]pyridin-6-yl]oxyethoxy]ethoxy]ethoxy]-ethoxy]ethoxy]ethoxy]isoindole-1,3-dione]
